Test results: PubChem BioAssay AID250 (DTP/NCI, 2004)
“And” between values parts separate entries of the source, which are not always exact repeats. Identical values can stand only once. Inconclusive results and toxic doses are left out.

Tested on: BDF1 mice, L1210 leukemia sc, survival T/C
Assay: NCI In Vivo Anticancer Drug Screen. Data for tumor model L1210 Leukemia (subcutaneous) in B6D2F1 (BDF1) mice
Conditions: endpoint: median survival time, higher = longer survival
In short: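 Expressed as T/C: measurement in compound-treated, tumor-bearing mice relative to vehicle-treated control mice, based on survival or tumor size.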

O=NN(CCCl)C(=O)NCCCl
T/C (dose: 0.65 mg/kg/injection, schedule: Q01DX Z (sc), vehicle: methylcellulose (MC)): 115 % of control | T/C (dose: 0.75 mg/kg/injection, schedule: Q01DX009 (ip), vehicle: saline): 110 % of control | T/C (dose: 1.08 mg/kg/injection, schedule: Q## X Z (sc), vehicle: methylcellulose (MC)): 107 % of control | T/C (dose: 1.5 mg/kg/injection, schedule: Q01DX009 (ip), vehicle: saline): 120 % of control | T/C (dose: 1.8 mg/kg/injection, schedule: Q01DX Z (sc), vehicle: methylcellulose (MC)): 184 % of control | T/C (dose: 1.8 mg/kg/injection, schedule: Q07DX Z (sc), vehicle: methylcellulose (MC)): 107 % of control | T/C (dose: 1.8 mg/kg/injection, schedule: Q## X Z (sc), vehicle: methylcellulose (MC)): 115 % of control | T/C (dose: 3.0 mg/kg/injection, schedule: Q01DX001 (ip), vehicle: saline): 119 % of control | T/C (dose: 3.0 mg/kg/injection, schedule: Q01DX001 (iv), vehicle: saline): 123 % of control | T/C (dose: 3.0 mg/kg/injection, schedule: Q01DX009 (ip), vehicle: saline): 190 % of control | T/C (dose: 3.0 mg/kg/injection, schedule: Q01DX Z (oral), vehicle: saline): 205 % of control | T/C (dose: 3.0 mg/kg/injection, schedule: Q01DX Z (sc), vehicle: methylcellulose (MC)): 223 % of control | T/C (dose: 3.0 mg/kg/injection, schedule: Q07DX Z (sc), vehicle: methylcellulose (MC)): 115 % of control | T/C (dose: 3.0 mg/kg/injection, schedule: Q## X Z (sc), vehicle: methylcellulose (MC)): 119 % of control | T/C (dose: 3.0 mg/kg/injection, schedule: Q## X Z (sc), vehicle: saline): 123 % of control | T/C (dose: 5.0 mg/kg/injection, schedule: Q01DX001 (sc), vehicle: saline): 115 % of control | T/C (dose: 5.0 mg/kg/injection, schedule: Q01DX Z (oral), vehicle: saline): 521 % of control | T/C (dose: 5.0 mg/kg/injection, schedule: Q01DX Z (sc), vehicle: methylcellulose (MC)): 200 % of control | T/C (dose: 5.0 mg/kg/injection, schedule: Q07DX Z (sc), vehicle: saline): 120 % of control and 123 % of control | T/C (dose: 5.0 mg/kg/injection, schedule: Q## X Z (sc), vehicle: methylcellulose (MC)): 173 % of control | T/C (dose: 6.0 mg/kg/injection, schedule: Q01DX009 (ip), vehicle: saline): 210 % of control | T/C (dose: 8.4 mg/kg/injection, schedule: Q01DX001 (ip), vehicle: saline): 233 % of control | T/C (dose: 8.4 mg/kg/injection, schedule: Q01DX001 (iv), vehicle: saline): 247 % of control | T/C (dose: 8.4 mg/kg/injection, schedule: Q01DX Z (oral), vehicle: saline): 284 % of control | T/C (dose: 8.4 mg/kg/injection, schedule: Q01DX Z (sc), vehicle: methylcellulose (MC)): 188 % of control | T/C (dose: 8.4 mg/kg/injection, schedule: Q07DX Z (sc), vehicle: methylcellulose (MC)): 161 % of control | T/C (dose: 8.4 mg/kg/injection, schedule: Q07DX Z (sc), vehicle: other): 305 % of control | T/C (dose: 8.4 mg/kg/injection, schedule: Q07DX Z (sc), vehicle: saline): 161 % of control and 210 % of control and 252 % of control | T/C (dose: 8.4 mg/kg/injection, schedule: Q16DX002 (ip), vehicle: saline): 172 % of control | T/C (dose: 8.4 mg/kg/injection, schedule: Q## X Z (sc), vehicle: methylcellulose (MC)): 250 % of control | T/C (dose: 8.4 mg/kg/injection, schedule: Q## X Z (sc), vehicle: saline): 246 % of control | T/C (dose: 10.0 mg/kg/injection, schedule: Q01DX001 (sc), vehicle: methylcellulose (MC)): 255 % of control | T/C (dose: 10.0 mg/kg/injection, schedule: Q01DX001 (sc), vehicle: saline): 185 % of control | T/C (dose: 10.8 mg/kg/injection, schedule: Q01DX001 (ip), vehicle: saline): 150 % of control | T/C (dose: 10.8 mg/kg/injection, schedule: Q01DX001 (sc), vehicle: saline): 248 % of control and 250 % of control | T/C (dose: 10.8 mg/kg/injection, schedule: Q07DX003 (sc), vehicle: saline): 274 % of control and 275 % of control | T/C (dose: 14.0 mg/kg/injection, schedule: Q01DX001 (iv), vehicle: saline): 209 % of control | T/C (dose: 14.0 mg/kg/injection, schedule: Q01DX Z (oral), vehicle: saline): 194 % of control | T/C (dose: 14.0 mg/kg/injection, schedule: Q01DX Z (sc), vehicle: saline): 161 % of control and 273 % of control and 285 % of control | T/C (dose: 14.0 mg/kg/injection, schedule: Q01HX002 (ip), vehicle: saline): 315 % of control | T/C (dose: 14.0 mg/kg/injection, schedule: Q07DX Z (sc), vehicle: methylcellulose (MC)): 173 % of control | T/C (dose: 14.0 mg/kg/injection, schedule: Q07DX Z (sc), vehicle: other): 88 % of control | T/C (dose: 14.0 mg/kg/injection, schedule: Q07DX Z (sc), vehicle: saline): 200 % of control | T/C (dose: 14.0 mg/kg/injection, schedule: Q16DX002 (ip), vehicle: saline): 315 % of control | T/C (dose: 14.0 mg/kg/injection, schedule: Q## X Z (sc), vehicle: methylcellulose (MC)): 315 % of control | T/C (dose: 14.0 mg/kg/injection, schedule: Q## X Z (sc), vehicle: saline): 315 % of control | T/C (dose: 18.0 mg/kg/injection, schedule: Q01DX001 (ip), vehicle: saline): 181 % of control and 200 % of control | T/C (dose: 18.0 mg/kg/injection, schedule: Q01DX001 (sc), vehicle: saline): 310 % of control and 352 % of control | T/C (dose: 18.0 mg/kg/injection, schedule: Q07DX003 (sc), vehicle: saline): 645 % of control and 660 % of control | T/C (dose: 20.0 mg/kg/injection, schedule: Q01DX001 (sc), vehicle: methylcellulose (MC)): 240 % of control | T/C (dose: 20.0 mg/kg/injection, schedule: Q01DX001 (sc), vehicle: saline): 270 % of control | T/C (dose: 23.0 mg/kg/injection, schedule: Q01DX001 (ip), vehicle: saline): 480 % of control | T/C (dose: 23.0 mg/kg/injection, schedule: Q01DX001 (iv), vehicle: saline): 423 % of control | T/C (dose: 23.0 mg/kg/injection, schedule: Q01DX Z (oral), vehicle: saline): 157 % of control | T/C (dose: 23.0 mg/kg/injection, schedule: Q01HX002 (ip), vehicle: saline): 315 % of control | T/C (dose: 23.0 mg/kg/injection, schedule: Q07DX Z (sc), vehicle: methylcellulose (MC)): 184 % of control | T/C (dose: 23.0 mg/kg/injection, schedule: Q07DX Z (sc), vehicle: other): 555 % of control | T/C (dose: 23.0 mg/kg/injection, schedule: Q07DX Z (sc), vehicle: saline): 438 % of control and 631 % of control and 645 % of control | T/C (dose: 23.0 mg/kg/injection, schedule: Q16DX002 (ip), vehicle: saline): 315 % of control | T/C (dose: 23.0 mg/kg/injection, schedule: Q## X Z (sc), vehicle: saline): 284 % of control | T/C (dose: 24.0 mg/kg/injection, schedule: Q01DX009 (ip), vehicle: saline): 115 % of control | T/C (dose: 30.0 mg/kg/injection, schedule: Q01DX001 (ip), vehicle: saline): 218 % of control and 483 % of control | T/C (dose: 30.0 mg/kg/injection, schedule: Q01DX001 (sc), vehicle: saline): 410 % of control and 441 % of control | T/C (dose: 30.0 mg/kg/injection, schedule: Q07DX003 (sc), vehicle: saline): 295 % of control and 303 % of control | T/C (dose: 39.0 mg/kg/injection, schedule: Q01DX001 (ip), vehicle: saline): 309 % of control | T/C (dose: 39.0 mg/kg/injection, schedule: Q07DX Z (sc), vehicle: other): 294 % of control | T/C (dose: 39.0 mg/kg/injection, schedule: Q07DX Z (sc), vehicle: saline): 173 % of control and 315 % of control | T/C (dose: 40.0 mg/kg/injection, schedule: Q01DX001 (sc), vehicle: methylcellulose (MC)): 230 % of control | T/C (dose: 40.0 mg/kg/injection, schedule: Q01DX001 (sc), vehicle: saline): 195 % of control | T/C (dose: 48.0 mg/kg/injection, schedule: Q01DX001 (ip), vehicle: saline): 292 % of control | T/C (dose: 50.0 mg/kg/injection, schedule: Q01DX001 (ip), vehicle: saline): 475 % of control | T/C (dose: 50.0 mg/kg/injection, schedule: Q01DX001 (sc), vehicle: saline): 205 % of control | T/C (dose: 60.0 mg/kg/injection, schedule: Q01DX001 (ip), vehicle: saline): 124 % of control | T/C (dose: 65.0 mg/kg/injection, schedule: Q01DX001 (oral), vehicle: saline): 114 % of control | T/C (dose: 65.0 mg/kg/injection, schedule: Q07DX Z (sc), vehicle: other): 205 % of control | T/C (dose: 80.0 mg/kg/injection, schedule: Q01DX001 (sc), vehicle: methylcellulose (MC)): 110 % of control | T/C (dose: 80.0 mg/kg/injection, schedule: Q01DX001 (sc), vehicle: saline): 110 % of control | T/C (dose: 108.0 mg/kg/injection, schedule: Q01DX001 (oral), vehicle: saline): 104 % of control | T/C (dose: 120.0 mg/kg/injection, schedule: Q01DX001 (sc), vehicle: methylcellulose (MC)): 100 % of control | T/C (dose: 120.0 mg/kg/injection, schedule: Q01DX001 (sc), vehicle: saline): 105 % of control | T/C (dose: 180.0 mg/kg/injection, schedule: Q01DX001 (oral), vehicle: saline): 95 % of control
